Experimental data as given in paper PMC12876990, “Targeting secreted PLA2 interactions with EGFR and vimentin to arrest prostate tumour growth” (Cell Death & Disease, 2025).
Square brackets hold non-standard residues; d marks the D form. Peptide text beside a SMILES is read from it. 2Nal = N[C@@H](Cc1ccc2ccccc2c1)C(=O)O

Key:
[1] = 28-day oral toxicity study: haematology analysis; format: in vivo, male Sprague Dawley rats; conditions: for MCHC: calculated value
Description: Blood analyse s (haematology and biochemistry) w ere performed on all animals on Day 29 (main groups) or Day 43 (recovery groups). Approximately 4 mL of blood was taken from ea ch animal by cardiac puncture using a 10 mL syringe and 21-gauge needle. The procedure involved anaesthetising by intraperitoneal injection of sodi um pentobarbitone using a 2 mL sterile plastic syringe attached to a 26-gauge needle (Terumo).
For each blood sampling, the blood was divided into two aliquots: (i) one was placed into a tube containing EDTA (for whole blood and EDTA plasma), (ii) one aliquot into a Li-heparin tube.
3.9.1. Haematology analysis
The following parameters were analysed: Red blood cell (RBC), haemoglobin (Hb), haematocrit (Hct), mean corpuscular volume (MCV), mean corpuscular haemoglobin (MCH), mean corpuscular haemoglobin concentration (MCHC), platelet count (PLT), mean platelet volume (MPV), white blood count (WBC), neutrophil (Neut), lymphocyte (Lymph), monocytes (Mono), eosinophil (Eos), basophil (Baso).
Results and methods of analysis were attached in an appendix to the report (Appendix D Haematology and Biochemistry). Blood smear s for cell morphology were prepared. By convention only abnormal findings on smear evaluation were reported. […]
Haematology and Biochemistry). […]
(Appendix C Study Data Spreadsheets). […]

[2] = Toxicity and serum enzyme levels in PCa xenograft model mice; format: in vivo
Description: Fig. 1 Derived from the structure of hGIIA, cF and c2 are orally absorbed, cell permeable and non-toxic. a Structure of hGIIA showing disulphide bonds (yellow) and the location of the peptide sequence ^70FLSYK^74 (cyan), which was cyclised to produce pentapeptide cF, then modified to produce c2. b Plasma concentrations of tritiated cF (red) and c2 (blue) following subcutaneous (sc) administration (circles) or oral (po) administration (squares) at 5 mg/kg to BALB/c mice (mean ± SE, n = 4 per time point). Tissue concentrations of c cF and d c2 following sc administration determined in the liver (blue) and kidney (brown) (mean ± SE). Dashed lines indicate estimated background levels of tritium in tissues due to tissue blood content (10% of peak plasma concentration). e–i Following po administration of c2 at 100 mg/kg to male rats (n = 5 per group), levels of c2 were measured in e plasma, f kidney, g faeces, h urine and i liver at timepoints indicated via LCMS/MS (mean ± SE). j Serum enzyme levels of markers of kidney function (creatinine), liver damage (AST and ALT) and heart damage (CK) in PCa xenograft model mice in response to treatment with vehicle (po, 3 x weekly for 6.1 ± 1.6 weeks), cF (10 mg/kg, po, 3 x weekly for 5.4 ± 0.9 weeks) or c2 (10 mg/kg, po, 3 x weekly for 4.8 ± 0.8 weeks) (n = 4, mean ± SE). Data were obtained by the South Eastern Area Laboratory Services Pathology Laboratory at Prince of Wales Hospital, Randwick, Australia. k PCa cell lines LNCaP, PC-3, and DU145 cells incubated with 100 µM c2 (green) for 24 hours with DAPI (blue), scale bar 10 µm (representative cells of n = 3 biological replicates, 5 cells per replicate).
A key failing of previous enzymatic inhibitors of hGIIA was toxicity, resulting in increased incidence of myocardial infarction in a phase III clinical trial. Thus, the toxicity profile of novel hGIIA inhibitors is critically important in evaluating new inhibitors. […] Extensive histopathology was performed on all animals in the control and high dose groups sacrificed on day 29, with no difference observed between the treated groups and the vehicle control group by any measure. […] In light of the toxicity associated with the myocardial infarction study, data from this c2 toxicity study relevant to heart toxicity are shown in Table 1. Heart wet weight was not affected by either low or high dose relative to vehicle, indicating the compound has no significant pro-hypertrophy effect at these doses. The lack of effect of c2 on gross necropsy or histopathology scores also supports the preclinical safety of the compound in the heart. Importantly, c2 has no effect on serum potassium levels or the Na/K ratio, since hypokalemia (low potassium) is highly arrythmogenic. […] It is of interest also that serum alanine transaminase is unaffected by c2 at the doses tested, since this marker was raised three-fold over the normal range in 6.3-fold more patients on varespladib than placebo in the VISTA acute coronary syndrome trial of this sPLA2 inhibitor [13].

[3] = 28-day oral toxicity study: body weights; format: in vivo, male Sprague Dawley rats
Description: 3.6. Procedure for test item administration
intragastric cannula attached to a 3 mL syringe.
3.7. Observation of animals
groups: Day 29; recovery groups: Day 43).
(Appendix C Study Data Spreadsheets).
report (Appendix C Study Data Spreadsheets). […]

[4] = Day 43, Gr 5 recovery, 20 mg/kg

CC(C)C[C@@H]1NC(=O)[C@H](Cc2ccc3ccccc3c2)NC(=O)[C@H](CCCNC(=N)N)NC(=O)[C@H](Cc2ccc3ccccc3c2)NC(=O)[C@H](CO)NC1=O [c2, cyclo-((2-Nal)-Leu-Ser-(2-Nal)-Arg)] (cyclo([2Nal]LS[2Nal]R))
Hb ([1]; Day 29, Gr 2, 1 mg/kg): 157 ± 4.7 g/L | PLT ([1]; Day 29, Gr 2, 1 mg/kg): 1184 ± 127.7 x 109 / L | MCHC ([1]; Day 29, Gr 2, 1 mg/kg): 344 ± 5.1 g/L | Hb ([1]; Day 29, Gr 3, 20 mg/kg): 159 ± 3.0 g/L | PLT ([1]; Day 29, Gr 3, 20 mg/kg): 1191 ± 93.8 x 109 / L | MCHC ([1]; Day 29, Gr 3, 20 mg/kg): 351 ± 4.0 g/L | blood haematology ([1]; Day 29 and Day 43): no obvious test item related effect | Baso [1, 4]: 0 L⁻¹ | Hb [1, 4]: 154 ± 1.8 g/L | PLT [1, 4]: 1182 ± 143.7 x 109 / L | MCHC [1, 4]: 353 ± 4.2 g/L | serum creatinine, aspartate aminotransferase, alanine aminotransferase, creatine kinase levels ([2]; 10 mg/kg po thrice weekly): no significant changes | damage to organs ([2]; 10 mg/kg thrice weekly for 10 weeks): no observable damage to organs | gross toxicity ([2]; max dosages of 10 mg/kg thrice weekly for 10 weeks): No gross toxicity | percentage body weight gain ([3]; 4-week observation period, Gr 2, 1 mg/kg): 55.4 ± 8.84% | body weight gains vs vehicle control ([3]; 28-day and 42-day experimental period): comparable | Mean body weight ([3]; Day 1, Gr 2, 1 mg/kg): 261 ± 14.0 g | Mean body weight ([3]; Day 1, Grs 3 & 5, 20 mg/kg): 257 ± 11.3 g | Mean body weight ([3]; Day 8, Gr 2, 1 mg/kg): 312 ± 15.3 g | Mean body weight ([3]; Day 8, Grs 3 & 5, 20 mg/kg): 312 ± 14.1 g | Mean body weight ([3]; Day 15, Gr 2, 1 mg/kg): 356 ± 22.3 g | Mean body weight ([3]; Day 15, Grs 3 & 5, 20 mg/kg): 354 ± 20.8 g | Mean body weight ([3]; Day 22, Gr 2, 1 mg/kg): 387 ± 24.9 g | Mean body weight ([3]; Day 22, Grs 3 & 5, 20 mg/kg): 392 ± 24.5 g | Mean body weight ([3]; Day 28, Gr 2, 1 mg/kg): 406 ± 31.0 g | Mean body weight ([3]; Day 28, Grs 3 & 5, 20 mg/kg): 414 ± 27.3 g | Mean body weight ([3]; Day 29 after overnight fasting, Gr 2, 1 mg/kg): 395 ± 28.0 g | Mean body weight ([3]; Day 29 after overnight fasting, Gr 3, 20 mg/kg): 395 ± 31.5 g | Mean body weight ([3]; Day 36, Gr 5 recovery, 20 mg/kg): 458 ± 12.0 g | Mean body weight ([3]; Day 42, Gr 5 recovery, 20 mg/kg): 480 ± 11.6 g | Mean body weight ([3]; Day 43 after overnight fasting, Gr 5 recovery, 20 mg/kg): 460 ± 12.3 g | body weight gain ([3]; Week 1, Gr 2, 1 mg/kg): 19.6 ± 2.49%
